Data on 21 compounds can be found in patent US12187742B2 (XRAD Therapeutics, Inc., priority 2018, dated 2025).

The target in assay [1] is ATM (Homo sapiens (Human), UniProt Q13315). Briefly: ATM in Cell Western Assay (pKAP1 in etoposide-treated MCF-7 cells). The format is cell-based. An outline of the steps: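 After paraformaldehyde fixation and Triton X-100 permeabilization, immunostained plates were read by infrared scanning (ODYSSEY CLx). Compound was given as 10 doses, 3-fold dilutions from a 1 μM final top concentration.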

Assay [2] deals with DNA-PK (Homo sapiens (Human), UniProt P78527). Briefly: DNA-PK Enzyme-Linked Immunosorbent Assay (phosphorylation of GST-p53 (1-101) peptide). The format is biochemical. As to conditions: ELISA. An outline of the steps: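 Inhibition measured by 450 nm absorbance after HRP/TMB detection of phospho-Ser15 on immobilized GST-p53 (1-101). The kinase reaction used 0.1 μg/mL DNA-PK and 20 μM ATP, 1 h at 25 °C. Ten 3-fold compound dilutions, top final concentration 100 nM.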

Setting [3] is: pKAP1 in etoposide-treated MCF-7 cells.
Setting [4] is: MCF-7 cells, etoposide 100 μM, 1 hr, pKAP1 readout.

Where a name gives a salt, the structure may show the parent alone. Bounds are passed on as bounds.

Chain of ATM (Q13315 whole entry): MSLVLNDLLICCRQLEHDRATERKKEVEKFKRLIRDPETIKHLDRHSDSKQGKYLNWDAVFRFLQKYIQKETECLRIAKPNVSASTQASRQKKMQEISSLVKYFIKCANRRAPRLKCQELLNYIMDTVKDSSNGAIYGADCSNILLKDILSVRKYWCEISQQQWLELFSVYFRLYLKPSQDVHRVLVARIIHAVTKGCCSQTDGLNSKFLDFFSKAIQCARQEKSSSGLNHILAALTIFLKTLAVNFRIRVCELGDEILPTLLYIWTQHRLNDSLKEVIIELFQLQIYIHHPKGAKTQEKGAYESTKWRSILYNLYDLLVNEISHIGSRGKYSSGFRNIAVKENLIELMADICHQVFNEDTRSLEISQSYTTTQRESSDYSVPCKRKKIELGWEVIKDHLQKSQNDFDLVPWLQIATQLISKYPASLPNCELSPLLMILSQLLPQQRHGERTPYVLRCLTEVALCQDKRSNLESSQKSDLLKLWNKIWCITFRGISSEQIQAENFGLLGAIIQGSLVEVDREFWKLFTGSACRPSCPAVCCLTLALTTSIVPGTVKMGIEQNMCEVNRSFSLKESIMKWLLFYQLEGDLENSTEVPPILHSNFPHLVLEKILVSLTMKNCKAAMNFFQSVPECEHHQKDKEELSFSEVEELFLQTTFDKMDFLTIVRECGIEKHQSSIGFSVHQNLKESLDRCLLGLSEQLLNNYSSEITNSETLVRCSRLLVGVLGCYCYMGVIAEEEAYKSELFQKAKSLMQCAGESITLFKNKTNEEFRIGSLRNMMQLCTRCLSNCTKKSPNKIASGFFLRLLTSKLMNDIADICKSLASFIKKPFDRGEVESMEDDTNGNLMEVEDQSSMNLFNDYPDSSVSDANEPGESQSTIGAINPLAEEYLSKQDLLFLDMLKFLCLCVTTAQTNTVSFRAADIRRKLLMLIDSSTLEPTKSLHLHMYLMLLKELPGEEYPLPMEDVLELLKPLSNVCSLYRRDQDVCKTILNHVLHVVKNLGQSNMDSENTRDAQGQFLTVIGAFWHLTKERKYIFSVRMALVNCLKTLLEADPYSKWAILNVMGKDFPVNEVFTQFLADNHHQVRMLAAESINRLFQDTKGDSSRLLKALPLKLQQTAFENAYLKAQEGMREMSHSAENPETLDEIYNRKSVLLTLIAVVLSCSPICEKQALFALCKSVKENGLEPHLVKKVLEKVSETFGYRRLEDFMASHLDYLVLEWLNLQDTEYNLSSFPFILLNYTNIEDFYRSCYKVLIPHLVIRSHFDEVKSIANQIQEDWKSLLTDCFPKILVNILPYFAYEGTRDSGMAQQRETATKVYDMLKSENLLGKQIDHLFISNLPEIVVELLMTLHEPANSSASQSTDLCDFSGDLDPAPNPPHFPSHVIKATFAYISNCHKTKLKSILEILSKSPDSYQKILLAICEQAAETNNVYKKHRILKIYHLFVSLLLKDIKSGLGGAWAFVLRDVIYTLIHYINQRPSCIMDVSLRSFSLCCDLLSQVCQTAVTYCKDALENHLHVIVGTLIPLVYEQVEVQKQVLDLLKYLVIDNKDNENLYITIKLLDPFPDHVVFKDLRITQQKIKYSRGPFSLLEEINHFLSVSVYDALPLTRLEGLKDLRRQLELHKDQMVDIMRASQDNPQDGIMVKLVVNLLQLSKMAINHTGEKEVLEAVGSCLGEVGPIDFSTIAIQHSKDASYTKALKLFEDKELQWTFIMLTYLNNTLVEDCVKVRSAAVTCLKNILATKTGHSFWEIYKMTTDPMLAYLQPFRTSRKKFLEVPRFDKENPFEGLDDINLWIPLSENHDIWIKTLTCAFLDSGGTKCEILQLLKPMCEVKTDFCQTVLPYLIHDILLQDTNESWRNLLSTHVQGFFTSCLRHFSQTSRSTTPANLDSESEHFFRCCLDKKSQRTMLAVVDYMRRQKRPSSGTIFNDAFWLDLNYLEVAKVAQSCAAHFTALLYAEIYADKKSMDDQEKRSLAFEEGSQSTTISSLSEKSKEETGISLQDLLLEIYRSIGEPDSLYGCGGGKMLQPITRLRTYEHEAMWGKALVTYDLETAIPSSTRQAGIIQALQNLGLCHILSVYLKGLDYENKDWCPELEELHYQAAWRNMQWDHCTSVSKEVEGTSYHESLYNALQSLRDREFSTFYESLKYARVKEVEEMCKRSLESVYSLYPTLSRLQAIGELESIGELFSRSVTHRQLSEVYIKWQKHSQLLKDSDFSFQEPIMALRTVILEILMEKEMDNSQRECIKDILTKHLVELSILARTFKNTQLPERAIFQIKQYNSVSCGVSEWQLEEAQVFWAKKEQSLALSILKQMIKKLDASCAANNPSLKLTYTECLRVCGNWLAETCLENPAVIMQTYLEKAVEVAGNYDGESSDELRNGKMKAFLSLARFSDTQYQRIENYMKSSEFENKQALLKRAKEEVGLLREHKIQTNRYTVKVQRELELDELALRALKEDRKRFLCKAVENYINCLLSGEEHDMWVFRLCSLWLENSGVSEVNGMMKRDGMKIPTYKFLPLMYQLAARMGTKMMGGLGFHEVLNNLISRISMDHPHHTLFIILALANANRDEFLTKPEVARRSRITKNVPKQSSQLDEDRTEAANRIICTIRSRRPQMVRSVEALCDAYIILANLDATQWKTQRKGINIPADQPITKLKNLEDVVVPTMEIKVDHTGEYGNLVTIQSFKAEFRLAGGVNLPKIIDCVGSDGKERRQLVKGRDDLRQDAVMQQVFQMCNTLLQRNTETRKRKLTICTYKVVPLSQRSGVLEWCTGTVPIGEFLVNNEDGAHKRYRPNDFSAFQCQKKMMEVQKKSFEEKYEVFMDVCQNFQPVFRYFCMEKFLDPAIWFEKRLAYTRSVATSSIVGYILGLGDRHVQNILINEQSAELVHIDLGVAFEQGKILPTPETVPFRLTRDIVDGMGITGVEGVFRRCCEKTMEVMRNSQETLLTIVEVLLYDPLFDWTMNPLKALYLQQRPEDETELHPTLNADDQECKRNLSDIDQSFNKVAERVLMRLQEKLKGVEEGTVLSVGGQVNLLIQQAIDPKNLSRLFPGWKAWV

The term IC50 denotes the concentration at which inhibition is half-maximal. A high value points to lower potency. With `CC(C)NCCOc1ncc(-c2cc3c4c(cnc3cc2F)N(C)C(=O)C42CN(C(C)C)C2)cc1NS(=O)(=O)C(C)C` [Example 485, N-(5-(7′-Fluoro-1-isopropyl-3′-methyl-2′-oxo-2′,3′-dihydrospiro[azetidine-3,1′-pyrrolo[2,3-c]quinolin]-8′-yl)-2-(2-(isopropylamino)ethoxy)pyridin-3-yl)propane-2-sulfonamide], the half-maximal inhibitory concentration (IC50) in assay [1] (setting [3]) and in assay [2] (20 μM ATP) was 1 to 100 nM throughout.

For `Cl.[2H]C1([2H])N(CCCOc2ncc(-c3ccc4ncc5c(c4c3)C3(CCC3)C(=O)N5C)cc2NS(=O)(=O)c2ccc(C)nc2)C([2H])([2H])C([2H])([2H])C([2H])([2H])C1([2H])[2H]` [Example 221, 6-Methyl-N-(5-(3′-methyl-2′-oxo-2′,3′-dihydrospiro[cyclobulane-1,1′-pyrrolo[2,3-c]quinolin]-8′-yl)-2-(3-(piperidin-1-yl-d10)propoxy)pyridin-3-yl)pyridine-3-sulfonamide hydrochloride], the half-maximal inhibitory concentration (IC50) fell in the range of 1 to 100 nM in assay [1] (setting [4]) and 0.5 to 1 nM in assay [2] (ATP 20 μM).

Take `CNCCCOc1ncc(-c2ccc3ncc4c(c3c2)C2(CCC2)C(=O)N4C)cc1NS(C)(=O)=O` [Example 240, N-(5-(3′-Methyl-2′-oxo-2′,3′-dihydrospiro[cyclobutane-1,1′-pyrrolo[2,3-c]quinolin]-8′-yl)-2-(3-(methylamino)propoxy)pyridin-3-yl) methanesulfonamide formate]: the IC50 in assay [1] (setting [4]) was 1 to 100 nM; in assay [2] (ATP 20 μM), less than 0.5 nM.

For `CN(C)CCCOc1ncc(-c2ccc3ncc4c(c3c2)C2(CCC2)C(=O)N4C)cc1NS(=O)(=O)N1CCC1` [Example 164, N-(2-(3-(Dimethylamino)propoxy)-5-(3′-methyl-2′-oxo-2′,3′-dihydrospiro[cyclobutane-1,1′-pyrrolo[2,3-c]quinolin]-8′-yl)pyridin-3-yl)azetidine-1-sulfonamide], the figures for the half-maximal inhibitory concentration (IC50) in assay [1] (setting [4]) and in assay [2] (ATP 20 μM) were 1 to 100 nM and less than 0.5 nM, respectively.

For `CN1C(=O)C2(CCC2)c2c1cnc1ccc(-c3cnc(N4CCC(N5CCCCC5)CC4)c(NS(=O)(=O)N(C)C)c3)cc21` [Example 208, 8′-(6-{[1,4′-Bipiperidine]-1′-yl}-5-[(dimethylsulfamoyl)amino]pyridin-3-yl)-3′-methyl-2′,3′-dihydrospiro[cyclobutane-1,1′-pyrrolo[2,3-c]quinoline]-2′-one], the 50% inhibitory concentration (IC50) was 1 to 100 nM in assay [1] (setting [4]) and less than 0.5 nM in assay [2] (ATP 20 μM).

On to `CC(C)NCCOc1ncc(-c2cc3c(cc2F)ncc2c3[C@]3(C[C@H](c4ccccn4)C3)C(=O)N2C)cc1NS(C)(=O)=O` [Example 434, cis-N-(5-(7′-Fluoro-3′-methyl-2′-oxo-3-(pyridin-2-yl)-2′,3′-dihydrospiro [cyclobutane-1,1′-pyrrolo[2,3-c]quinolin]-8′-yl)-2-(2-(isopropylamino)ethoxy)pyridin-3-yl)methanesulfonamide], for which the IC50 in assay [1] (setting [3]) and in assay [2] (20 μM ATP) was 1 to 100 nM each time.

Regarding `CC(C)NCCOc1ncc(-c2cc3c(cc2F)ncc2c3[C@]3(C[C@@H](Nc4ccccc4)C3)C(=O)N2C)cc1NS(C)(=O)=O` [Example 460, trans-N-(5-(7′-Fluoro-3′-methyl-2′-oxo-3-(phenylamino)-2′,3′-dihydrospiro[cyclobutane-1,1′-pyrrolo[2,3-c]quinolin]-8′-yl)-2-(2-(isopropylamino)ethoxy)pyridin-3-yl)methanesulfonamide hydrochloride], the half-inhibitory concentration (IC50) in assay [1] (setting [3]) and in assay [2] (20 μM ATP) was 1 to 100 nM each time.

For the compound `CC(C)NCCOc1ncc(-c2cc3c4c(cnc3cc2F)N(C)C(=O)C42CN(c3ccc(-c4ccccc4)cc3)C2)cc1NS(C)(=O)=O` [Example 543, N-(5-(1-([1,1′-Biphenyl]-4-yl)-7′-fluoro-3′-methyl-2′-oxo-2′,3′-dihydrospiro[azetidine-3,1′-pyrrolo[2,3-c]quinolin]-8′-yl)-2-(2-(isopropylamino)ethoxy)pyridin-3-yl)methanesulfonamide], the IC50 in assay [1] (setting [3]) and in assay [2] (20 μM ATP) was 1 to 100 nM throughout.

`CO[C@H]1C[C@]2(C1)C(=O)N(C)c1cnc3cc(F)c(-c4cnc(OCCNC(C)C)c(NS(=O)(=O)N(C)C)c4)cc3c12` [Example 389, cis-8′-{5-[(Dimethylsulfamoyl)amino]-6-{2-[(propan-2-yl)amino]ethoxy}pyridine-3-yl}-7′-fluoro-3-Methoxy-3′-methyl-2′,3′-dihydrospiro[cyclobutane-1,1′-pyrrolo[2,3-c]quinoline]-2′-one]: the concentration for half-maximal inhibition (IC50) in assay [1] (setting [3]) and in assay [2] (20 μM ATP) was 1 to 100 nM in each case.

As to `CN(C)CCCOc1ncc(-c2ccc3ncc4c(c3c2)C2(CCC2)C(=O)N4C)cc1NS(=O)(=O)C(F)(F)F` [Example 239, N-(2-(3-(Dimethylamino)propoxy)-5-(3′-methyl-2′-oxo-2′,3′-dihydrospiro [cyclobutane-1,1′-pyrrolo[2,3-c]quinolin]-8′-yl)pyridin-3-yl)-1,1,1-trifluoromethane-sulfonamide], the concentration for half-maximal inhibition (IC50) in assay [1] (setting [4]) was 1 to 100 nM; in assay [2] (ATP 20 μM), less than 0.5 nM.

Take `CC(C)NCCOc1ncc(-c2cc3c4c(cnc3cc2F)N(C)C(=O)C42CN(c3ccc4c(c3)OCCO4)C2)cc1NS(C)(=O)=O` [Example 545, N-(5-(1-(2,3-Dihydrobenzo[b][1,4]dioxin-6-yl)-7′-fluoro-3′-methyl-2′-oxo-2′,3′-dihydrospiro[azetidine-3,1′-pyrrolo[2,3-c]quinolin]-8′-yl)-2-(2-(isopropylamino)ethoxy)pyridin-3-yl)methanesulfonamide]: the figures for the IC50 in assay [1] (setting [3]) and in assay [2] (20 μM ATP) were 1 to 100 nM and 0.5 to 1 nM, respectively.

Turning to `CN(C)CCCOc1ncc(-c2ccc3ncc4c(c3c2)C2(CCC2)C(=O)N4C)cc1NS(=O)(=O)c1cncc(Cl)c1` [Example 130, 5-Chloro-N-(2-(3-(dimethylamino)propoxy)-5-(3′-methyl-2′-oxo-2′,3′-dihydrospiro[cyclobulane-1,1′-pyrrolo[2,3-c]quinolin]-8′-yl)pyridin-3-ylpyridine-3-sulfonamide hydrochloride], the IC50 in assay [1] (setting [4]) and in assay [2] (ATP 20 μM) was 1 to 100 nM throughout.

Regarding `CN(C)CCCOc1ncc(-c2ccc3ncc4c(c3c2)C2(CCC2)C(=O)N4C)cc1NS(=O)(=O)c1ccc(C#N)nc1` [Example 147, 6-Cyano-N-(2-(3-(dimethylamino)propoxy)-5-(3′-methyl-2′-oxo-2′,3′-dihydrospiro[cyclobulane-1,1′-pyrrolo[2,3-c]quinolin]-8′-yl)pyridin-3-ylpyridine-3-sulfonamide hydrochloride], the values for the IC50 in assay [1] (setting [4]) and in assay [2] (ATP 20 μM) were 1 to 100 nM and 0.5 to 1 nM, respectively.

For the compound `CO[C@H]1C[C@]2(C1)C(=O)N(C)c1cnc3cc(F)c(-c4cnc(N5CCC(N6CCCCC6)CC5)c(NS(C)(=O)=O)c4)cc3c12` [Example 391, cis-N-(2-([1,4′-Bipiperidin]-1′-yl)-5-(7′-fluoro-3-methoxy-3′-methyl-2′-oxo-2′,3′-dihydrospiro[cyclobutane-1,1′-pyrrolo[2,3-c]quinolin]-8′-yl)pyridin-3-yl)methanesulfonamide], the 50% inhibitory concentration (IC50) in assay [1] (setting [3]) and in assay [2] (20 μM ATP) was 1 to 100 nM each time.

For the compound `COc1ccc([C@H]2C[C@]3(C2)C(=O)N(C)c2cnc4cc(F)c(-c5cnc(OCCNC(C)C)c(NS(C)(=O)=O)c5)cc4c23)cn1` [Example 430], the IC50 in assay [1] (setting [3]) and in assay [2] (20 μM ATP) was 1 to 100 nM in each case.

In the case of `COc1ccc(N2CC3(C2)C(=O)N(C)c2cnc4cc(F)c(-c5cnc(OCCNC(C)C)c(NS(C)(=O)=O)c5)cc4c23)cc1` [Example 533, N-(5-(7′-Fluoro-1-(4-methoxyphenyl)-3 methyl-2′-oxo-2′,3′-dihydrospiro [azetidine-3,1′-pyrrolo[2,3-c]quinolin]-8′-yl)-2-(2-(isopropylamino)ethoxy)pyridin-3-yl)methanesulfonamide], the IC50 in assay [1] (setting [3]) and in assay [2] (20 μM ATP) was 1 to 100 nM in each case.

As for `CN(C)CCCOc1ncc(-c2ccc3ncc4c(c3c2)C2(CC2)C(=O)N4C)cc1NS(=O)(=O)c1ccc(OC(F)(F)F)cc1` [Example 121, N-(2-(3-(Dimethylamino)propoxy)-5-(3′-methyl-2′-oxo-2′,3′-dihydrospiro[cyclopropane-1,1′-pyrrolo[2,3-c]quinolin]-8′-yl)pyridin-3-yl)-4-(trifluoromethoxy)benzenesulfonamide], the half-inhibitory concentration (IC50) in assay [1] (setting [4]) was 1 to 100 nM; in assay [2] (ATP 20 μM), less than 0.5 nM.

Turning to `CN1C(=O)C2(CCC2)c2c1cnc1ccc(-c3cnc(OCCCN4CCCCC4)c(NS(=O)(=O)c4ccccc4)c3)cc21` [Example 132, N-(5-(3′-Methyl-2′-oxo-2′,3′-dihydrospiro[cyclobulane-1,1′-pyrrolo[2,3-c]quinolin]-8′-yl)-2-(3-(piperidin-1-yl)propoxy)pyridin-3-yl)benzenesulfonamide hydrochloride], the IC50 in assay [1] (setting [4]) and in assay [2] (ATP 20 μM) was 1 to 100 nM each time.

Consider `Cc1ccc(S(=O)(=O)Nc2cc(-c3ccc4ncc5c(c4c3)C3(CC3)C(=O)N5C)cnc2N2CCC(N3CCCCC3)CC2)cn1` [Example 218], for which the values for the IC50 in assay [1] (setting [4]) and in assay [2] (ATP 20 μM) were 1 to 100 nM and less than 0.5 nM, respectively.

`CC1CCCN1S(=O)(=O)Nc1cc(-c2ccc3ncc4c(c3c2)C2(CCC2)C(=O)N4C)cnc1OCCCN(C)C` (stereo not drawn) [Example 172, N-(2-(3-(Dimethylamino)propoxy)-5-(3′-methyl-2′-oxo-2′,3′-dihydrospiro [cyclobulane-1,1′-pyrrolo[2,3-c]quinolin]-8′-yl)pyridin-3-yl)-2-methylpyrrolidine-1-sulfonamide]: the half-maximal inhibitory concentration (IC50) in assay [1] (setting [4]) and in assay [2] (ATP 20 μM) was 1 to 100 nM in each case.

As for `CC(C)NCCOc1ncc(-c2cc3c4c(cnc3cc2F)N(C)C(=O)C42CCC2)cc1NS(=O)(=O)C(C)(C)C` [Example 366, N-(5-(7′-Fluoro-3′-methyl-2′-oxo-2′,3′-dihydrospiro[cyclobutane-1,1′-pyrrolo[2,3-c]quinolin]-8′-yl)-2-(2-(isopropylamino)ethoxy)pyridin-3-yl)-2-methylpropane-2-sulfonamide], the figures for the IC50 in assay [1] (setting [3]) and in assay [2] (20 μM ATP) were 1 to 100 nM and 0.5 to 1 nM, respectively.
